One data set relates to AML12 Cell Line. Description: Transfection of AML12 Cell Line with FLuc mRNA LNPs (ONE-Glo EX luciferase signal). In kind it is cell-based. The following applies: 200 ng Fluc mRNA-LNP, 24 hours. Summed up: (§1)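 Firefly luciferase luminescence measured 24 h after transfection with 200 ng mRNA-LNP per well in Opti-MEM. Seeding: 5,000 cells/well for B16F10 and MC38.K, 20,000 for AML12. LNPs were pre-incubated 30 min with mouse serum; mRNA content determined by RiboGreen.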

A further data set deals with B16F10 Cell Line. In words: Transfection of B16F10 Cell Line with FLuc mRNA LNPs (ONE-Glo EX luciferase signal). It counts as cell-based. The following applies: 200 ng Fluc mRNA-LNP, 24 hours. Summed up: as §1
The test system of another data set is MC38.K Cell Line. In words: Transfection of MC38.K Cell Line with FLuc mRNA LNPs (ONE-Glo EX luciferase signal). It counts as cell-based. To be noted: 200 ng Fluc mRNA-LNP, 24 hours; for Total Luciferin Signal (RLU) In Vitro - MC38.K: Table 4; for Total Luciferin Signal (RLU) In Vitro-MC38: Table 5. The method, boiled down: as §1
Another data set deals with Liver. Description: Ex-vivo luminescence signal from liver after IV Fluc mRNA LNPs in CD1 mice (IVIS). The following applies: tail vein 1.0 mg/kg Day 0 and Day 2, imaging 18 hours after second dose; for Total Liver Tissue Luciferin Signal (Photons/s) Ex-vivo - CD1: Table 4; for Total Liver Tissue Luciferin Signal (Photons/s) In Vivo-Cd1: Table 5.
In a further data set the test system is hepatocytes. Description: Comparative study of fluoro v. non-fluoro compounds: Firefly Luciferase transfection efficiency. In kind it is cell-based. The following applies: Firefly Luciferase expression in hepatocytes; pairs Compound 54 v. 58 and Compound 68 v. 67. The text has this:
Transfection efficiency was compared between three pairs of compounds, Compound 54 v. Compound 58, Compound 68 v. Compound 67, and Compound 37 v. Compound 61. For each pair, the compounds only differ on one fluoro-substitution at the end of an alkyl chain. For example, the structures of Compound 54 and Compound 58 are shown below:
In vitro and in vivo comparison of Firefly Luciferase expression data of fluoro v. non-fluoro compounds were obtained according to procedure similar to those in Example 3 and Example 7. […] Compound 58 and Compound 68 v. Compound 67 in hepatocytes.

In a further data set the test system is Spleen. Description: Ex-vivo luminescence signal from spleen after IV Fluc mRNA LNPs in CD1 mice (IVIS). To be noted: tail vein 1.0 mg/kg Day 0 and Day 2, imaging 18 hours after second dose, Table 5.
The next data set deals with C57BL/6 mice. In words: Multi-dose tolerability screening of NT-beta-Actin mRNA LNPs in MC38.K-inoculated C57BL/6 mice. In kind it is in vivo. To be noted: C57BL/6 mice with MC38.K, 1.0 mg/kg IV twice a week for two weeks; for adverse clinical observations / reduction in white blood cells and lymphocytes in the blood: compared to Compound 23 LNPs. The procedure:
NT-beta-Actin mRNA LNPs with different ionizable lipids were administered IV to C57BL/6 mice, inoculated with MC38.K cells, via the tail vein for a total of four doses (twice a week for two consecutive weeks) at a concentration of 1.0 mg/kg. Bodyweights were monitored and blood was collected pre-dose, 24 hours post first dose, 24 hours post fourth dose, and analyzed for cytokines, blood chemistry, and liver/spleen weights. Compounds 23, 99 and 101 were formulated using a peripheral process method. C57BL/6 mice were inoculated with MC38.K cells. Once tumors had grown, 1.0 mg/kg (Beta-Actin mRNA) of each LNP was intravenously administered twice a week for two weeks. […] N=6 per group for bodyweights, N=3 for blood analysis. Mean+/−SD.

Another data set relates to liver, tumor, and spleen. In words: Biodistribution of Fluc mRNA LNPs in MC38.K-inoculated Albino B6 mice (ex vivo luminescence). To be noted: Albino B6 mice with MC38.K, 1.0 mg/kg IV, 18 hours. The procedure:
Fluc mRNA LNPs were administered to Albino B6 mice, inoculated with MC38.K cells, via the tail vein at 1.0 mg/kg. Eighteen hours later, bioluminescence was measured using an IVIS Spectrum imager. Mice were treated with 150 mg/kg luciferin substrate administered via intraperitoneal injection. Afterwards, mice were euthanized, and the lung, liver, spleen, and tumor were harvested for ex vivo imaging. All procedures were conducted according to the approved IACUC guidelines. N=5 per group. Data analysis was performed in Graphpad Prism 10. Values are reported as mean+/−standard deviation, unless specified otherwise. Ex-Vivo luminescence of liver, tumor, and spleen organs after 1.0 mg/kg IV injection of Peripheral LNPs. N=4 mice per group. (Mean±SD, n=4/group).

Molecules are shown by their SMILES.

Consider eight molecules from patent US20260116845A1, “LIPIDS AND COMPOSITIONS THEREOF” (Kernal Biologics, Inc., priority 2023, published 2026).

Regarding `CCCCCCCCC(CCCCCCCC)OC(=O)CCCCCCCN(CCO)CCCCCCCOC(=O)CCCCCCCC=C(C)C` [Compound 54, 7-((8-(heptadecan-9-yloxy)-8-oxooctyl)(2-hydroxyethyl)amino)heptyl 10-methylundec-9-enoate], in the data set with AML12 Cell Line (Table 4), the “Total Luciferin Signal (RLU) In Vitro - AML12” value is on record as 1.05E+06 RLU. For the same molecule, the “Total Luciferin Signal (RLU) In Vitro - B16F10” value in the data set with B16F10 Cell Line (Table 4) is on record as 7.25E+05 RLU. In addition, in the data set on MC38.K Cell Line, the “Total Luciferin Signal (RLU) In Vitro - MC38.K” value is given as 5.12E+06 RLU. Further, in the data set with Liver, the “Total Liver Tissue Luciferin Signal (Photons/s) Ex-vivo - CD1” value worked out at 8.29E+09 Photons/s. The “difference in transfection efficiency within fluoro v. non-fluoro pair” value with hepatocytes is given as “Statistically significant difference in transfection efficiency”.
The like results for `CCCCCCCCC(CCCCCCCCF)OC(=O)CCCCCCCN(CCO)CCCCCCCC(=O)OCCCCCCCC=C(C)C` (stereo not drawn) [Compound 58, 1-fluoroheptadecan-9-yl 8-((2-hydroxyethyl)(8-((9-methyldec-8-en-1-yl)oxy)-8-oxooctyl)amino)octanoate] were, in that order, 2.18E+06 RLU, 4.03E+05 RLU, 4.80E+06 RLU, 9.65E+09 Photons/s and “Statistically significant difference in transfection efficiency”.
For `CCCCCCCCC(CCCCCCCCF)OC(=O)CCCCCCCN(CCCCO)CCCCCCC(C)C(=O)OCCCCCCCCC(C)C` (stereo not drawn) [Compound 67, 9-methyldecyl 8-((8-((1-fluoroheptadecan-9-yl)oxy)-8-oxooctyl)(4-hydroxybutyl)amino)-2-methyloctanoate], the “Total Luciferin Signal (RLU) In Vitro - AML12” value in the data set with AML12 Cell Line (Table 4) is on record as 4.35E+06 RLU. In addition, the “Total Luciferin Signal (RLU) In Vitro - B16F10” value in the data set on B16F10 Cell Line (Table 4) turned out to be 2.75E+06 RLU. Besides, the “Total Luciferin Signal (RLU) In Vitro - MC38.K” value with MC38.K Cell Line was 3.24E+07 RLU. In addition, in the data set with Liver, the “Total Liver Tissue Luciferin Signal (Photons/s) Ex-vivo - CD1” value is 5.31E+09 Photons/s. The “difference in transfection efficiency within fluoro v. non-fluoro pair” value with hepatocytes is on record as “Statistically significant difference in transfection efficiency”.
The like results for `CCCCCCCCC(CCCCCCCC)OC(=O)CCCCCCCN(CCCCO)CCCCCCC(C)C(=O)OCCCCCCCCC(C)C` (stereo not drawn) [Compound 68, 9-methyldecyl 8-((8-(heptadecan-9-yloxy)-8-oxooctyl)(4-hydroxybutyl)amino)-2-methyloctanoate] were, in that order, 2.89E+06 RLU, 2.83E+06 RLU, 1.60E+07 RLU, 1.06E+10 Photons/s and “Statistically significant difference in transfection efficiency”.
As to `CCCCCCCC/C=C\CCCCCCC1CN(CCOC(=O)CCN(C)C)CC(CCCCCC(=O)OC(CCCCCCCC)CCCCCCCC)O1` (stereo not drawn) [Compound 97, heptadecan-9-yl (Z)-6-(4-(2-((3-(dimethylamino)propanoyl)oxy)ethyl)-6-(hexadec-7-en-1-yl)morpholin-2-yl)hexanoate], the “Total Luciferin Signal (RLU) In Vitro - AML12” value in the data set with AML12 Cell Line (Table 5) is on record as 2.58E+05 RLU. The “Total Luciferin Signal (RLU) In Vitro - B16F10” value with B16F10 Cell Line (Table 5) stood at 2.98E+06 RLU. Further, in the data set on MC38.K Cell Line, the “Total Luciferin Signal (RLU) In Vitro-MC38” value stood at 6.42E+05 RLU. For the same molecule, the “Total Liver Tissue Luciferin Signal (Photons/s) In Vivo-Cd1” value in the data set on Liver is recorded as 2.08E+08 Photons/s. Moreover, the “Total Spleen Tissue Luciferin Signal (Photons/s) In Vivo-Cd1” value (“Total Spleen Tissue Luciferin Signal” below) in the data set with Spleen stood at 1.60E+07 Photons/s.
For the molecule `CCCCCCCC/C=C\CCCCCCC1CN(CCOC(=O)CCN(C)C)CC(CCCCCC(=O)OC(CCCCCCCC)CCCCCCC(C)C)O1` (stereo not drawn) [Compound 99, 2-methylheptadecan-9-yl (Z)-6-(4-(2-((3-(dimethylamino)propanoyl)oxy)ethyl)-6-(hexadec-7-en-1-yl)morpholin-2-yl)hexanoate], the “Total Luciferin Signal (RLU) In Vitro - AML12” value in the data set with AML12 Cell Line (Table 5) is on record as 1.00E+05 RLU. Also, the “Total Luciferin Signal (RLU) In Vitro - B16F10” value in the data set with B16F10 Cell Line (Table 5) worked out at 5.27E+05 RLU. For the same molecule, in the data set with MC38.K Cell Line, the “Total Luciferin Signal (RLU) In Vitro-MC38” value worked out at 7.66E+04 RLU. In addition, the “Total Liver Tissue Luciferin Signal (Photons/s) In Vivo-Cd1” value in the data set on Liver is 1.81E+09 Photons/s. Besides, the “Total Spleen Tissue Luciferin Signal” value in the data set with Spleen stood at 2.78E+07 Photons/s. In the data set with C57BL/6 mice, the tolerability entry was “improved tolerability”; the adverse clinical observations entry is “less adverse clinical observations”; the “reduction in white blood cells and lymphocytes in the blood” value was “less of a reduction in white blood cells and lymphocytes”. For the same molecule, in the data set with liver, tumor, and spleen, the “expression in liver and spleen (ex-vivo luminescence)” value is on record as “significantly less expression”; the “expression in solid tumor tissue (ex-vivo luminescence)” value is listed as “nearly equivalent expression”.
As to `CCCCCCCCC(CCCCCCCC)OC(=O)CCCCCC1CN(CCOC(=O)CCN(C)C)CC(CCCCCC(=O)OC(CCCCCCCC)CCCCCCCC)O1` (stereo not drawn) [Compound 100, di(heptadecan-9-yl) 6,6′-(4-(2-((3-(dimethylamino)propanoyl)oxy)ethyl)morpholine-2,6-diyl)dihexanoate], the “Total Luciferin Signal (RLU) In Vitro - AML12” value in the data set with AML12 Cell Line (Table 5) was 1.43E+04 RLU. Further, the “Total Luciferin Signal (RLU) In Vitro - B16F10” value with B16F10 Cell Line (Table 5) is 6.29E+04 RLU. For the same molecule, the “Total Luciferin Signal (RLU) In Vitro-MC38” value in the data set with MC38.K Cell Line came to 3.18E+04 RLU. In the data set with Liver, the “Total Liver Tissue Luciferin Signal (Photons/s) In Vivo-Cd1” value is 6.44E+09 Photons/s. In addition, the “Total Spleen Tissue Luciferin Signal” value in the data set on Spleen came out at 2.92E+07 Photons/s.
Regarding `CCCCCCCCCOC(=O)CCCCCC1CN(CCOC(=O)CCN(C)C)CC(CCCCCC(=O)OC(CCCCCCCC)CCCCCCCC)O1` (stereo not drawn) [Compound 101, heptadecan-9-yl 6-(4-(2-((3-(dimethylamino)propanoyl)oxy)ethyl)-6-(6-(nonyloxy)-6-oxohexyl)morpholin-2-yl)hexanoate], in the data set with AML12 Cell Line (Table 5), the “Total Luciferin Signal (RLU) In Vitro - AML12” value was found to be 9.36E+04 RLU. Further, the “Total Luciferin Signal (RLU) In Vitro - B16F10” value in the data set on B16F10 Cell Line (Table 5) was determined as 6.73E+04 RLU. In the data set with MC38.K Cell Line, the “Total Luciferin Signal (RLU) In Vitro-MC38” value is given as 6.90E+05 RLU. Moreover, the “Total Liver Tissue Luciferin Signal (Photons/s) In Vivo-Cd1” value in the data set with Liver is reported as 6.70E+08 Photons/s. The “Total Spleen Tissue Luciferin Signal” value with Spleen was found to be 1.57E+08 Photons/s. In addition, in the data set with C57BL/6 mice, the tolerability result was “improved tolerability”; the adverse clinical observations result was “less adverse clinical observations”; the “reduction in white blood cells and lymphocytes in the blood” value is “less of a reduction in white blood cells and lymphocytes”.
